test system: T1, His-tagged-Hsp90; test: Hsp90 biochemical assay (AlphaLISA); format: binding; conditions: IC50 class; AlphaLISA (primary assay); read-out: Hsp90 inhibitory activity
T1 construct: fused on or other part: His tag (captured on Ni2+-coated beads)
Description: This assay employs biotinylated geldanamycin, His-tagged-Hsp90, and Ni^+2 coated beads. This assay is homogenous and miniaturized to 384-well plates. Measurement of binding activity was performed on an Envision reader. […] This assay is the primary assay for evaluating compounds of the invention.

| Structure (SMILES) | IC50 [µM] |
| --- | --- |
| COc1ccc(Cl)c(-c2cc(Cl)nc(N)n2)c1 [Compound 78] | 1 to 4 |
| COc1cc(-c2cc(Cl)nc(N)n2)ccc1Cl [Compound 79] | < 1 |
| COc1cc(-c2cc(C)nc(N)n2)c(C(F)(F)F)cc1Cl [compound 1] | > 10 |
| Cc1cc(-c2cc(OC(C)C)c(Cl)cc2Cl)nc(N)n1 [compound 2] | 1 to 4 |
| CNc1nc(C)cc(-c2c(Cl)cc(Cl)c3c2CCO3)n1 [compound 3, 4-(5,7-Dichloro-2,3-dihydrobenzofuran-4-yl)-N,6-dimethylpyrimidin-2-amine] | > 10 |
| Cc1cc(-c2c(Cl)cc(Cl)c3c2CCO3)nc(N(C)C)n1 [compound 4, 4-(5,7-Dichloro-2,3-dihydrobenzofuran-4-yl)-N,N,6-trimethylpyrimidin-2-amine] | > 10 |
| COc1cc(-c2nc(N)nc3c2CCC3)c(Cl)cc1F [compound 11, 4-(2-chloro-4-fluoro-5-methoxyphenyl)-6,7-dihydro-5H-cyclopenta[d]pyrimidin-2-amine] | 4 to 10 |
| Nc1nc2c(c(-c3c(Cl)cc(Cl)c4c3CCO4)n1)CCCC2 [compound 15, 4-(5,7-dichloro-2,3-dihydrobenzofuran-4-yl)-5,6,7,8-tetrahydroquinazolin-2-amine] | 4 to 10 |
| CCNC(=O)N1Cc2nc(N)nc(-c3c(Cl)cc(Cl)c4c3CCO4)c2C1 [compound 17] | > 10 |
| Cn1ccc2c(-c3c(Cl)cc(Cl)c4c3CCO4)nc(N)nc21 [compound 30] | > 10 |
| CCNC(=O)Cn1ccc2nc(N)nc(-c3c(Cl)cc(Cl)c4c3CCO4)c21 [compound 31] | > 10 |
| CCNC(=O)Cn1ccc2c(-c3c(Cl)cc(Cl)c4c3CCO4)nc(N)nc21 [compound 32] | > 10 |
| CNc1cc(-c2c(Cl)cc(Cl)c3c2CCO3)nc(N)n1 [compound 33] | 4 to 10 |
| COc1cc(-c2nc(N)nc(SC)n2)c(Cl)cc1Cl [compound 34] | < 1 |
| COc1cc(-c2cc(SC)nc(N)n2)c(Cl)cc1Cl [compound 35] | < 1 |
| COc1cc(-c2nc(N)nc(-c3cc(OC)c(Cl)cc3Cl)n2)c(Cl)cc1Cl [compound 37] | > 10 |
| COc1cc(-c2cc(C)nc(N)n2)c(Cl)cc1Cl [compound 38] | 1 to 4 |
| Nc1nc(Cl)cc(-c2c(Cl)cc(Cl)c3c2CCO3)n1 [compound 49, 4-chloro-6-(5,7-dichloro-2,3-dihydrobenzofuran-4-yl)pyrimidin-2-amine] | < 1 |

| Structure (SMILES) | IC50 [µM] |
| --- | --- |
| Nc1nc(-c2c(Cl)cc(Cl)c3c2CCO3)cc(C(F)(F)F)n1 [compound 50, 4-trifluoromethyl-6-(5,7-dichloro-2,3-dihydrobenzofuran-4-yl)pyrimidin-2-amine] | 1 to 4 |
| CSc1cc(-c2c(Cl)cc(Cl)c3c2CCO3)nc(N)n1 [compound 51, 4-thiomethyl-6-(5,7-dichloro-2,3-dihydrobenzofuran-4-yl)pyrimidin-2-amine] | < 1 |
| Nc1nc(Cl)c(N)c(-c2c(Cl)cc(Cl)c3c2CCO3)n1 [compound 52, 4-chloro-6-(5,7-dichloro-2,3-dihydrobenzofuran-4-yl)pyrimidine-2,5-diamine] | < 1 |
| Nc1nc(O)cc(-c2c(Cl)cc(Cl)c3c2CCO3)n1 [compound 53, 2-amino-6-(5,7-dichloro-2,3-dihydrobenzofuran-4-yl)pyrimidin-4-ol] | > 10 |
| COC(=O)n1ccc2nc(N)nc(-c3c(Cl)cc(Cl)c4c3CCO4)c21 [compound 54, Methyl 2-amino-4-(5,7-dichloro-2,3-dihydrobenzofuran-4-yl)-5H-pyrrolo[3,2-d]pyrimidine-5-carboxylate] | > 10 |
| Nc1nc(-c2c(Cl)cc(Cl)c3c2CCO3)c2[nH]cc(C=O)c2n1 [compound 56, 2-amino-4-(5,7-dichloro-2,3-dihydrobenzofuran-4-yl)-5H-pyrrolo[3,2-d]pyrimidine-7-carbaldehyde] | > 10 |
| COc1cc(-c2nc(N)nc3c(Br)c[nH]c23)c(Cl)cc1Cl [compound 57, 7-bromo-4-(2,4-dichloro-5-methoxyphenyl)-5H-pyrrolo[3,2-d]pyrimidin-2-amine] | > 10 |
| Nc1nc(-c2c(Cl)cc(Cl)c3c2CCO3)c2cc(C(=O)NCCN3CCCC3)sc2n1 [compound 58, 2-amino-4-(5,7-dichloro-2,3-dihydrobenzofuran-4-yl)-N-(2-(pyrrolidin-1-yl)ethyl)thieno[2,3-d]pyrimidine-6-carboxamide] | < 1 |
| N#CCCNC(=O)c1cc2c(-c3c(Cl)cc(Cl)c4c3CCO4)nc(N)nc2s1 [compound 59, 2-amino-N-(2-cyanoethyl)-4-(5,7-dichloro-2,3-dihydrobenzofuran-4-yl)thieno[2,3-d]pyrimidine-6-carboxamide] | < 1 |
| Nc1nc(-c2c(Cl)cc(Cl)c3c2CCO3)c2cc(C(=O)NCCO)sc2n1 [compound 60, 2-amino-4-(5,7-dichloro-2,3-dihydrobenzofuran-4-yl)-N-(2-hydroxyethyl)thieno[2,3-d]pyrimidine-6-carboxamide] | < 1 |
| Nc1nc(-c2c(Cl)cc(Cl)c3c2CCO3)c2cc(C(=O)NCC(F)(F)F)sc2n1 [compound 61, 2-amino-4-(5,7-dichloro-2,3-dihydrobenzofuran-4-yl)-N-(2,2,2-trifluoroethyl)thieno[2,3-d]pyrimidine-6-carboxamide] | < 1 |
| Nc1nc(-c2c(Cl)cc(Cl)c3c2CCO3)c2cc(C(=O)NC3CC3)sc2n1 [compound 62, 2-amino-N-cyclopropyl-4-(5,7-dichloro-2,3-dihydrobenzofuran-4-yl)thieno[2,3-d]pyrimidine-6-carboxamide] | < 1 |
| CNC(=O)c1cc2c(-c3c(Cl)cc(Cl)c4c3CCO4)nc(N)nc2s1 [compound 63, 2-amino-4-(5,7-dichloro-2,3-dihydrobenzofuran-4-yl)-N-methylthieno[2,3-d]pyrimidine-6-carboxamide] | < 1 |
| COCCNC(=O)c1cc2c(-c3c(Cl)cc(Cl)c4c3CCO4)nc(N)nc2s1 [compound 64, 2-amino-4-(5,7-dichloro-2,3-dihydrobenzofuran-4-yl)-N-(2-methoxyethyl)thieno[2,3-d]pyrimidine-6-carboxamide] | < 1 |
| Nc1nc(-c2c(Cl)cc(Cl)c3c2CCO3)c2cc(C(=O)NC3CCC3)sc2n1 [compound 65, 2-amino-N-cyclobutyl-4-(5,7-dichloro-2,3-dihydrobenzofuran-4-yl)thieno[2,3-d]pyrimidine-6-carboxamide] | < 1 |
| CN(C)C(=O)c1cc2c(-c3c(Cl)cc(Cl)c4c3CCO4)nc(N)nc2s1 [compound 66, 2-amino-4-(5,7-dichloro-2,3-dihydrobenzofuran-4-yl)-N,N-dimethylthieno[2,3-d]pyrimidine-6-carboxamide] | < 1 |
| Nc1nc(-c2c(Cl)cc(Cl)c3c2CCO3)c2cc(C(=O)NC3COC3)sc2n1 [compound 67, 2-amino-4-(5,7-dichloro-2,3-dihydrobenzofuran-4-yl)-N-(oxetan-3-yl)thieno[2,3-d]pyrimidine-6-carboxamide] | < 1 |
| Nc1nc(-c2c(Cl)cc(Cl)c3c2CCO3)c2cc(C(=O)N3CCOCC3)sc2n1 [compound 68, (2-amino-4-(5,7-dichloro-2,3-dihydrobenzofuran-4-yl)thieno[2,3-d]pyrimidin-6-yl)(morpholino)methanone] | 1 to 4 |

same assay, conditions: known Hsp90 inhibitor, biotinylated geldanamycin; read-out: IC50 (AlphaLISA assay validation)

| Structure (SMILES) | IC50 [µM] |
| --- | --- |
| CC(C)NCCCn1c(Sc2cc3c(cc2I)OCO3)nc2c(N)ncnc21 [PU-H71, reference compound] | 0.06 |
